Experimental data from EP1844039B1, “5-SUBSTITUTED QUINOLINE AND ISOQUINOLINE DERIVATIVES, A METHOD FOR THE PRODUCTION THEREOF AND THEIR USE AS ANTIPHLOGISTICS” (priority 2004, dated 2006).

Assays:
[1] = test system: Tyrosinaminotranferase (TAT); test: Induction of tyrosine aminotransferase (TAT) in hepatoma cells, 24 h treatment, photometric; assay type: cell-based, Ratten; conditions: rat hepatoma cells; for Efficacy: Efficacy von Dexamethason = 100%
From the text: Immunologische Grundlagen, Pharmakologie und Therapierichtlinien, Wissenschafliche Verlagsgesellschaft mbH, Stuttgart, 1998]. Ursache hierfür ist die Stimulation der Gluconeogenese in der Leber durch Induktion der hierfür verantwortlichen Enzyme und durch freie Aminosäuren, die aus dem Abbau von Proteinen (katabole Wirkung der Glucocorticoide) entstehen. Ein Schlüsselenzym des katabolen Stoffwechsels in der Leber ist die Tyrosinaminotranferase (TAT). Die Aktivität dieses Enzyms kann photometrisch aus Zellkulturen von behandelten Ratten-Hepatomzellen bestimmt werden. Die Zellen werden für 24 Stunden mit den Testsubstanzen behandelt und anschließend die TAT-Aktivität gemessen.

[2] = test system: IL-8; test: Inhibition of LPS-induced IL-8 secretion in THP-1 cells (ELISA of supernatant); assay type: cell-based, menschlichen; conditions: for Efficacy: Efficacy von Dexamethason = 100%; for IC50: Homo sapiens
From the text: Die erfindungsgemäßen Verbindungen der allgemeinen Formel (IIa) und (IIb) hemmen die durch Lipopolysaccharid (LPS) induzierte Sekretion des Zytokins IL-8 in der menschlichen Monozytenzelline THP-1.

[3] = Skin atrophy induction, 18 days daily local treatment, skin fold thickness measurement; assay type: in vivo; conditions: rats
From the text: Eine weitere, besonders nach lokaler Therapie, auftretende unerwünschte Wirkung ist die Induktion einer Hautatrophie, die zu einem Verlust der Haut an Dicke, Elastizität und letztlich der mechanischen Belastbarkeit der Haut führt. Das Potential einer Substanz, Hautatrophie zu induzieren, kann in Ratten bestimmt werden. Die Tiere werden dafür 18 Tage täglich lokal in äquieffektiven Dosierungen mit den Testsubstanzen behandelt. Mittels einer Hautfaltendickenmessung läßt sich die Abnahme der Hautdicke über die Behandlungszeit verfolgen.
Im Vergleich zu Clobetasolpropionat, das bei einer Konzentration von 0.01 % (maximale anti-inflammatorische Wirkung wird erreicht) zu einer 65%igen Reduktion der Hautdicke führt, ist bei Beispiel 1 bei einer Konzentration von 0.1 % (maximale anti-inflammatorische Wirkung wird erreicht) nur eine 41 %ige Reduktion festzustellen.
Dieser Vorteil ist auch gegenüber den Substanzen aus der Anmeldung WO03/082827 zu sehen; beispielsweise induziert das Eutomer von Beispiel 36 bereits bei einer Konzentration von 0.06% (maximale anti-inflammatorische Wirkung) eine 60%ige Reduktion der Hautdicke.

Structure (SMILES)	EC50 [1]	IC50 [2]	Efficacy [1]	Efficacy [2]	Reduktion der Hautdicke ([3]; concentration 0.1 % (maximal anti-inflammatory effect reached))	Reduktion der Hautdicke ([3]; concentration 0.01 % (maximal anti-inflammatory effect reached))
Cc1ccc2c(NCC(O)(CC(C)(C)c3cc(F)cc4c3OCC4)C(F)(F)F)ccc(F)c2n1 (racemic) [Beispiel 10, 8-Fluor-5-[4-(5-Fluor-2,3-dihydrobenzofuran-7-yl)-2-hydroxy-4-methyl-2-trifluormethyl-pentylamino]-2-methylchinolin]	10 nM	21 nM	92%	86%		
Cc1ccc2c(NCC(O)(CC(C)(C)c3cc(F)cc4c3OCC4)C(F)(F)F)cccc2n1 (racemic) [Beispiel 1, 5-[4-(5-Fluor-2,3-dihydrobenzofuran-7-yl)-2-hydroxy-4-methyl-2-trifluormethyl-pentylamino]-2-methylchinolin]	3.7 nM	5.9 nM	93%	74%	41%	
CCC(=O)O[C@]1(C(=O)CCl)[C@@H](C)C[C@H]2[C@@H]3CCC4=CC(=O)C=C[C@]4(C)[C@@]3(F)[C@@H](O)C[C@@]21C [Clobetasolpropionat, reference compound]						65%

Further lines, with some results ahead:

EC50 [1]	IC50 [2]	Structure (SMILES)	Efficacy [1]	Efficacy [2]	Reduktion der Hautdicke ([3]; concentration 0.1 % (maximal anti-inflammatory effect reached))	Reduktion der Hautdicke ([3]; concentration 0.01 % (maximal anti-inflammatory effect reached))
2.6 nM	13 nM	C[C@]12C=CC(=O)C=C1CC[C@@H]1[C@@H]2[C@@H](O)C[C@@]2(C)[C@H]1CC[C@]2(O)C(=O)CO [Prednisolon, reference compound]	103%	96%		
4 nM	8.5 nM	Cn1ccc2c(NCC(O)(CC(C)(C)c3cc(F)cc4c3OCC4)C(F)(F)F)cccc2c1=O (racemic) [Beispiel 11, 5-[4-(5-Fluor-2,3-dihydrobenzofuran-7-yl)-2-hydroxy-4-methyl-2-trifluormethylpentylamino]-2-methylisochinol-1(2H)-on]	86%	61%		
